Consider five compounds from patent US12252491B2, “IL-17A inhibitors” (Eli Lilly and Company, priority 2019, dated 2025).

A short description of series [1]: Mouse oral bioavailability. It counts as in vivo. The following applies: whole blood (dried blood spot), male mice, IV bolus 1 mg/kg vs oral 3 mg/kg, 8-hour AUC, read-out: % F (mouse). As to the method: Oral bioavailability (% F) for compounds of the invention may be determined in mice by determination of an 8-hour blood plasma AUC (nM*hr) following intravenous and oral administration performed essentially as follows. Male mice (n=3) are administered compound via intravenous (IV) bolus (1 mg/kg) or orally (3 mg/kg). For intravenous administration, a vehicle of 20% w/v capsitol in NaPO4 buffer (25 mM) adjusted to pH 2 in a volume of 5 mL/kg is used. For oral administration, a vehicle of HEC/P80/AF/PW (probe sonicated to afford a homogeneous suspension) in a volume of 10 mL/kg is used. Blood is sampled by saphenous bleeding using K2 EDTA as anticoagulant. Approximately 20 μL of blood (or enough for 1 spot) is collected via a capillary tube and transferred to a card as a dry blood spot. Cards are allowed to dry for at least 2 hours before shipping for analysis. Blood concentration of compounds for each mouse is measured by liquid chromatography/tandem mass spectrometry at time points of 0.08 (IV only), 0.25, 0.5, 0.75, 2, 4, and 8 hours. Oral bioavailability (% F) is determined via the following equation: [% F=(AUC/Dose)PO/(AUC/Dose)IV].

For series [2], the target named is binding of IL-17A to IL-17RA (Homo sapiens (Human), UniProt Q16552). The series is described as follows: IL-17A:IL-17RA AlphaLISA. On the technique in general: Alpha assays give light when donor and acceptor beads are brought close together.
Chain of binding of IL-17A to IL-17RA (Q16552 other isoform, or with tags, fused parts or gaps): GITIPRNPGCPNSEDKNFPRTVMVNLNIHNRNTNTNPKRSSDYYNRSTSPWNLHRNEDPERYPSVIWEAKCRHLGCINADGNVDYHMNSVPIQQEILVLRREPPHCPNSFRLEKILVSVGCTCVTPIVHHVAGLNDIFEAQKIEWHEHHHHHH
Description: The ability of compounds to inhibit the binding of IL-17A to IL-17RA may be assessed with an AlphaLISA assay.
To assay the compounds of the present invention, 0.1 μL of a test compound stock is serially diluted in 100% DMSO using an Echo Acoustic Liquid Handler (LabCyte Sunnydale, Calif.) in 384 well proxiplates (Perkin Elmer). A 5 μL addition of IL-17RA-FLAG is added to the plate, followed by the addition of 5 μL Avi-tagged IL-17A-His to provide a final concentration of 2 nM of IL-17RA and IL-17A, respectively. The assay is carried out in 20 mM HEPES, 150 mM NaCl, 0.05% Tween-20, 0.1% Human Serum Albumin, pH 7 and 1% DMSO. The assay mixture is allowed to incubate at room temperature for 2 hours. After the 2 hour incubation, 10 μL of streptavidin donor beads (20 μg/ml final) and anti-FLAG acceptor beads (20 μg/ml final) are added to the plate. The plate is allowed to incubate for one hour at room temp, then is read on the Envision (Perkin Elmer). The relative IC50 values are determined using a four parameter fit as shown in equation 1. In this equation, bottom and top are defined as the plateaus of the curve, and H is the Hill Slope.
The next series concerns the target human IL-17A (Homo sapiens (Human), UniProt Q16552).

The term IC50 denotes the concentration needed to halve the response being measured.

Structures are written as SMILES.

Chain of human IL-17A (Q16552 20-155): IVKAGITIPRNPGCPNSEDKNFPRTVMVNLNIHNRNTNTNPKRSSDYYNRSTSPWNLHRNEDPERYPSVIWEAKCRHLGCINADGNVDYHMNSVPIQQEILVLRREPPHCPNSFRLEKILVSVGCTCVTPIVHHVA
Description for human IL-17A: The ability of compounds to neutralize the activity of IL-17A may be assessed with a cell-based human IL-17A neutralization assay conducted essentially as follows. […] After 48 hours, CXCL1/GROα in the culture media is measured using a commercial ELISA kit (#DY275; R&D Systems). Medium alone treatments are included in every experiment to assess the basal levels of CXCL1/GROα. Percent inhibition is calculated using the following equation:

As to `O=C(N[C@H](c1cn2ncc(CN3C[C@@H](C(F)(F)F)NC3=O)cc2n1)C1CCC(F)(F)CC1)c1conc1CF` [Example 7, N—[(S)-(4,4-Difluorocyclohexyl)-[7-[[(4S)-2-oxo-4-(trifluoromethyl)imidazolidin-1-yl]methyl]imidazo[1,2-b]pyridazin-2-yl]methyl]-3-(fluoromethyl)isoxazole-4-carboxamide], in series [1], the bioavailability was determined as 47%. Besides, the IC50 in series [2] was 37.8 nM; against human IL-17A, 128 nM.

`O=C(N[C@H](c1cn2ncc(CN3C[C@@H](C(F)(F)F)NC3=O)cc2n1)C1CCC(F)(F)CC1)c1conc1CCF` [Example 9, N—[(S)-(4,4-Difluorocyclohexyl)-[7-[[(4S)-2-oxo-4-(trifluoromethyl)imidazolidin-1-yl]methyl]imidazo[1,2-b]pyridazin-2-yl]methyl]-3-(2-fluoroethyl)isoxazole-4-carboxamide]: in series [1], the bioavailability was determined as 12%. In addition, the IC50 in series [2] stood at 10.6 nM; against human IL-17A, 46.5 nM.

Take `O=C(N[C@H](c1cn2ncc(CN3C[C@@H](C(F)(F)F)NC3=O)cc2n1)C1CCC(F)(F)CC1)c1conc1C(F)(F)F` [Example 11, N—[(S)-(4,4-Difluorocyclohexyl)-[7-[[(4S)-2-oxo-4-(trifluoromethyl)imidazolidin-1-yl]methyl]imidazo[1,2-b]pyridazin-2-yl]methyl]-3-(trifluoromethyl)isoxazole-4-carboxamide]: in series [1], the bioavailability came to 55%. Also, the IC50 in series [2] is under 9.45 nM; against human IL-17A it was 148 nM.

Consider `COC[C@H](c1cnn2cc([C@@H](NC(=O)c3nonc3C)C3CCC(F)(F)CC3)nc2c1)N1C[C@@H](C(F)(F)F)NC1=O` [Example 24, N—[(S)-(4,4-Difluorocyclohexyl)-[7-[(1S)-2-methoxy-1-[(4S)-2-oxo-4-(trifluoromethyl)imidazolidin-1-yl]ethyl]imidazo[1,2-b]pyridazin-2-yl]methyl]-4-methyl-1,2,5-oxadiazole-3-carboxamide], for which, in series [1], the bioavailability turned out to be 107%. Moreover, the half-inhibitory concentration (IC50) in series [2] was under 9.45 nM; against human IL-17A it was 9.3 ± 6 nM.

Regarding `COC[C@H](c1cnn2cc([C@@H](NC(=O)c3nonc3C3CC3)C3CCC(F)(F)CC3)nc2c1)N1C[C@@H](C(F)(F)F)NC1=O` [Example 25, 4-Cyclopropyl-N—[(S)-(4,4-difluorocyclohexyl)-[7-[(1S)-2-methoxy-1-[(4S)-2-oxo-4-(trifluoromethyl)imidazolidin-1-yl]ethyl]imidazo[1,2-b]pyridazin-2-yl]methyl]-1,2,5-oxadiazole-3-carboxamide], the bioavailability in series [1] is 37%. Besides, the IC50 in series [2] was under 9.45 nM; against human IL-17A, 2.2 ± 1.6 nM.
